Entries after “also recorded” stand apart in the source; their conditions may differ. Like-named read-outs stand apart in the source and are kept apart here.
Tests used:
H460MX20 cells = assay: Sensitization of lung cancer cells overexpressing ABCG2 to SN-38, MTT assay; type: cell-based, human; details: H460MX20, SN-38 10 nM, 72 h, IC50 value or 5 µM
Protocol: (§1) Cell viability was evaluated with a 3-(4,5-dimethylthiazol-2-yl)-2,5-diphenyltetrazolium bromide (MTT) colorimetric assay. HEK293 WT and HEK293-ABCG2 cells were seeded into 96-well culture plates at a 1.5 × 10^4 cells/well density. After overnight incubation, the cells were treated with various concentrations of compounds (0–100 µM) for 72 h at 37 °C under 5% CO2. […] Sensitization experiments were also carried out on H460 and H460MX20 cells. For these experiments, H460 and H460MX20 cells were seeded into 96-well culture plates at 1.0 × 10^4 cells/well density. […] After the treatment, the culture medium was removed and 100 μL of a 0.5 mg.mL^−1 MTT solution was added. Cells were then incubated for 4 h at 37 °C under 5% CO2. The formazan crystals were dissolved with a solution of DMSO/ethanol (1:1) and the absorbance was measured at 570 nm using a Multiscan FC microplate reader (Thermo Scientific). The results were expressed as percentage of viable cells versus control cells (0.1% DMSO, v/v) taken as 100%.

ABCC1 (MRP1) = biological target: T1, ABCC1 (MRP1) (Homo sapiens, UniProt P33527); assay: ABCC1 (MRP1) calcein-AM transport inhibition in BHK21-ABCC1 cells; type: cell-based; details: 1 and 10 µM; for Inhibition of MRP1-mediated transport: calcein-AM
T1 construct: expressed in transfected cells; host or cells: BHK21
T1 sequence (P33527 whole entry): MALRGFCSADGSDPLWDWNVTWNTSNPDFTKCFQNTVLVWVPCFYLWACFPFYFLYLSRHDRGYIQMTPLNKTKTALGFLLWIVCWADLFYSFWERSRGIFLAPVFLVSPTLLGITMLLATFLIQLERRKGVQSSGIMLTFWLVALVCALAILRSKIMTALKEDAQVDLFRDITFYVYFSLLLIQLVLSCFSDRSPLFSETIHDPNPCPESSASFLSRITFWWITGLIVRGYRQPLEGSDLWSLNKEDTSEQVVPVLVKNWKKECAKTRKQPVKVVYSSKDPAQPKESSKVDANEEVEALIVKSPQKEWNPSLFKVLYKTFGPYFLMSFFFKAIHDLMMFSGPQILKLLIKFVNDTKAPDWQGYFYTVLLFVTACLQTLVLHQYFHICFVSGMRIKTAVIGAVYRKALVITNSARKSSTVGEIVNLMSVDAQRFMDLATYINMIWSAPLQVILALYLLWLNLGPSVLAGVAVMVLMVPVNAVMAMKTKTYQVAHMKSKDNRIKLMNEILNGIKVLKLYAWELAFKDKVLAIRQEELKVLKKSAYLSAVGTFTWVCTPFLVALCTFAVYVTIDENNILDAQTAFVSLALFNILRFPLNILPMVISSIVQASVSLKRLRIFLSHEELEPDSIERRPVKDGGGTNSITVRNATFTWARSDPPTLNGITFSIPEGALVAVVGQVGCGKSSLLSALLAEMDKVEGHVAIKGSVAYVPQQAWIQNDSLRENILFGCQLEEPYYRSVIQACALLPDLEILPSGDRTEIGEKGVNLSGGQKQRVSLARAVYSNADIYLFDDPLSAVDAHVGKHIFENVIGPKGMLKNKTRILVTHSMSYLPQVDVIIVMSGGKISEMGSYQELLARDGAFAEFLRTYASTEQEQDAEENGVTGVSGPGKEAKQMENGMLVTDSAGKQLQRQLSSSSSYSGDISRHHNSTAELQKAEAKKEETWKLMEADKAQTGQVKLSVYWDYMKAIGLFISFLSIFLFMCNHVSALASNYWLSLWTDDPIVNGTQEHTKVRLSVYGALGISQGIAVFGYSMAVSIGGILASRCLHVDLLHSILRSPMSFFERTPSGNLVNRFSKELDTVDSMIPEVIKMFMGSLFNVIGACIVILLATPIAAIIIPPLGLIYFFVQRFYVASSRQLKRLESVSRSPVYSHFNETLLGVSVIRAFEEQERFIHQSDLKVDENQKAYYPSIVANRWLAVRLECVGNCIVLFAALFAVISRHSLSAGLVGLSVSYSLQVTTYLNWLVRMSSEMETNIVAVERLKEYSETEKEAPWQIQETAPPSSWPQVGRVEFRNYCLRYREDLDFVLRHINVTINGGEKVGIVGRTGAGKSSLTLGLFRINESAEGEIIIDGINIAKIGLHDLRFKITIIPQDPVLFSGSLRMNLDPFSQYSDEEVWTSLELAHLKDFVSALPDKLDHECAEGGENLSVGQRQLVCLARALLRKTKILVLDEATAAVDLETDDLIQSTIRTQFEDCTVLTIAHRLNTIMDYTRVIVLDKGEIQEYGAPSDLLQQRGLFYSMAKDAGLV
Protocol: (§2) ABCG2 inhibition assays were carried out on HEK293 WT and HEK293-ABCG2 cells. Cells were seeded at the density of 1 × 10^5 cells/well in 24 well culture plates and incubated for 48 h at 37 °C under 5% CO2. Cells were treated with compounds and 10 μM of mitoxantrone for 30 min at 37 °C and 5% CO2. After incubation the cells were washed with PBS, trypsinized and resuspended in ice cold PBS. The intracellular drug fluorescence was monitored with a FACS Calibur cytometer (Becton Dickinson) using the FL4 channel, with at least 10,000 events collected. The maximal fluorescence (taken as 100%) was determined with the difference between the mean fluorescence of HEK-ABCG2 cells incubated with 0.5 μM Ko143 (ABCG2 reference inhibitor) or by using the HEK293 WT cell line as a control and cells without inhibitor (mitoxantrone alone). The percent of inhibition was determined as previously described. For bimodulation assays the cells were concomitantly treated with 10 μM of one or two combined inhibitors under similar conditions as described previously. For washing assays, cells were treated with 10 μM concentrations of compounds for 30 min. Then, the medium with the inhibitor was removed and the cells were washed with PBS and incubated only with culture medium for different periods of time (0.5 and 3 h). After incubation, cells were exposed to 5 µM mitoxantrone for 30 min, and then analyzed by flow cytometry. The percentage of transport inhibition was calculated by the following equation: %Inhibition=C-S/I-S×100 where “C” corresponds to the intracellular fluorescence of cells in the presence of the tested compounds and substrate (mitoxantrone to ABCG2, Rhodamine 123 to ABCB1 and calcein to ABCC1), “S” corresponds to the intracellular fluorescence of cells in the presence of substrate alone, and “I” corresponds to the intracellular fluorescence of cells in the presence of the substrate and reference inhibitor (Ko143 to ABCG2, GF120918 to ABCB1 and verapamil to ABCC1).
ABCB1 (P-gp) and ABCC1 (MRP1) inhibition assays were carried out on NIH3T3 WT and NIH3T3-ABCB1 or BHK21 WT and BHK21-ABCC1 cell lines. Cells were treated with 5 μM rhodamine 123 or 0.2 μM calcein-AM as substrates, and with or without GF120918 (0.5 μM) or verapamil (30 μM) as reference inhibitors, for ABCB1 and ABCC1, respectively. Compounds were assayed at 1 and 10 µM. The same procedure and calculation to determine the percentage of inhibition were used for ABCG2 inhibition assays. The intracellular fluorescence was monitored with a FACS Calibur cytometer (Becton Dickinson) using the FL1 channel.

[1] = tested on: HEK293 WT and HEK293-ABCG2 cells; assay: Intrinsic cytotoxicity of compounds, MTT assay; type: cell-based, human; details: HEK293-ABCG2 vs HEK293 WT, 72 h, 0.1–100 µM
Protocol: as §1

ABCG2 = biological target: T2, ABCG2 (Homo sapiens, UniProt Q9UNQ0); assay: Inhibition of ABCG2-mediated mitoxantrone efflux (flow cytometry); type: cell-based; parameters: expressed in transfected cells; host or cells: HEK293; details: for inhibition at 30 min: human, probe mitoxantrone (10 µM), from IC50 fitted curves, HEK293-ABCG2, mitoxantrone, 100% = Ko143 0.5 µM, read-out: IMAX (%) ± SD, maximal inhibition percentage; for Class of inhibitor by IMAX (complete or partial): threshold at 80% on IMAX values
T2 sequence (Q9UNQ0 1-655): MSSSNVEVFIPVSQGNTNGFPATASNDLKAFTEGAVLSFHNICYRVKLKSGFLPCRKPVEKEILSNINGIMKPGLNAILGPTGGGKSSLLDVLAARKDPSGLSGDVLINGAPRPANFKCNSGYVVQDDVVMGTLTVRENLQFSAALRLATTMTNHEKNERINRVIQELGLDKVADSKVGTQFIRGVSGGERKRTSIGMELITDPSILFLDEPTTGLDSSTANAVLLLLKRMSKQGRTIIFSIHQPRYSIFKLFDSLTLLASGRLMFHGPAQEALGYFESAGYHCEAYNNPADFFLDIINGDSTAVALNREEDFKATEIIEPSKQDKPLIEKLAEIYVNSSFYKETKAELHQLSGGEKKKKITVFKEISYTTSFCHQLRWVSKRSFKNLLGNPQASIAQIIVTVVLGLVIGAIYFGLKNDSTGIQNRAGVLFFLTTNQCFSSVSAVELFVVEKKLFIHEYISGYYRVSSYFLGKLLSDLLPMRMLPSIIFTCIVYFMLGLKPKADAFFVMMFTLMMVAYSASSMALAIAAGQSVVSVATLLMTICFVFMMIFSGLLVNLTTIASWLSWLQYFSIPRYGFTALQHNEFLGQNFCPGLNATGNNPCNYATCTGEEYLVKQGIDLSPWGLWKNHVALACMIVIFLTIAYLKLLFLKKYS
Protocol: as §2

COc1cc2c(cc1OC)-c1c(c3c(n1CCc1ccccc1)CC(C)CC3=O)C2=O (centres unmarked) [5e, 2,3-Dimethoxy-7-methyl-5-phenethyl-5,6,7,8-tetrahydroindeno[1,2-b]indole-9,10-dione]
Chemosensitization to SN-38 (H460MX20 cells): chemoresistance phenotype was fully reversed | Inhibition of MRP1-mediated transport (ABCC1 (MRP1)): partially inhibited | Intrinsic cytotoxicity in ABCG2-transfected versus control cells (cross-resistance) [1]: no apparent cross-resistance | IC50 (ABCG2; HEK293-ABCG2 cells, mitoxantrone 10 µM, 30 min, read-out: IC50 (µM) ± SD, inhibition of ABCG2-mediated mitoxantrone efflux): 0.15 ± 0.08 µM | inhibition at 30 min (ABCG2; HEK293-ABCG2 cells): 36.9 ± 1.16% | Class of inhibitor by IMAX (complete or partial) (ABCG2): partial (partial (IMAX ≤ 80% of ABCG2 inhibition))

COc1ccccc1CCn1c2c(c3c(O)cc(C)cc31)C(=O)c1ccccc1-2 [6a, 9-Hydroxy-7-methyl-5-(2-methoxyphenethyl)-5H-indeno[1,2-b]indol-10(5H)-one]
Chemosensitization to SN-38 (H460MX20 cells): chemoresistance phenotype was fully reversed | Selectivity toward ABCG2 versus P-gp and MRP1 (ABCC1 (MRP1)): specific ABCG2 inhibitor; also recorded: completely selective to ABCG2 | Intrinsic cytotoxicity in ABCG2-transfected versus control cells (cross-resistance) [1]: no apparent cross-resistance | IC50 (ABCG2): 0.21 ± 0.03 µM | inhibition at 30 min (ABCG2; HEK293-ABCG2 cells): 62.6 ± 2.3% | Class of inhibitor by IMAX (complete or partial) (ABCG2): partial (partial (IMAX ≤ 80% of ABCG2 inhibition))

COc1ccc2[nH]cc(CCn3c4c(c5c(O)cccc53)C(=O)c3ccccc3-4)c2c1 [6c, 9-Hydroxy-5-(2-(5-methoxy-1H-indol-3-yl)ethyl)indeno[1,2-b]indol-10(5H)-one]
Inhibition of MRP1-mediated transport (ABCC1 (MRP1)): partially inhibited | Intrinsic cytotoxicity in ABCG2-transfected versus control cells (cross-resistance) [1]: mild collateral sensitivity (CS) effect | IC50 (ABCG2): 0.48 ± 0.1 µM | inhibition at 30 min (ABCG2; HEK293-ABCG2 cells): 90.5 ± 8.07%

COc1cccc(CCn2c3c(c4c(O)cccc42)C(=O)c2ccc(O)cc2-3)c1 [6d, 3,9-Dihydroxy-5-(3-methoxyphenethyl)indeno[1,2-b]indol-10(5H)-one]
Inhibition of MRP1-mediated transport (ABCC1 (MRP1)): partially inhibited | Intrinsic cytotoxicity in ABCG2-transfected versus control cells (cross-resistance) [1]: mild collateral sensitivity (CS) effect | IC50 (ABCG2): 0.19 ± 0.04 µM | inhibition at 30 min (ABCG2; HEK293-ABCG2 cells): 84.8 ± 2.51%

From paper PMC7815716, “Mechanistic basis of breast cancer resistance protein inhibition by new indeno[1,2-b]indoles” (Scientific Reports, 2021)
